Here are results for three compounds from patent US20060165641A1, “Cosmetic compositions containing combinations of hydroxamate derivatives and antioxidants in a liposomal delivery system” (priority 2005, published 2006).

Experiment [1] concerns normal human keratinocytes. Description: Cornified envelope formation / differentiation of keratinocytes. The format is cell-based. The following applies: 0.15 mM calcium medium; relative to high calcium (1 mM) cultures. How it is done:
To measure the induction of differentiation of keratinocytes, cultures of normal human keratinocytes were incubated with medium containing 0.15 mM calcium (low calcium prevents CE formation and keeps cells in growth mode). The cells were treated with different amounts of SHA and the amount of the highly cross-linked, detergent insoluble CE formation was quantified after dissolving the cells in 2% SDS/20 mM Dithiothrietol (DTT). The insoluble CE was centrifuged, resuspended in water and the optical density of the turbid solution was measured at 400 nm. The increase in turbidity indicates increased CE formation. […] The results, presented in the right column, are expressed relative to high calcium (1 mM) containing cultures.

In another experiment the test system is keratinocytes. Description: Integrin expression of keratinocytes (ELISA). The following applies: 48 hrs. The class given is cell-based. On the procedure: (§1) In addition, SHA stimulates collagen and integrin synthesis of keratinocytes and fibroblasts. This was measured by treating keratinocyte or fibroblast cultures with SHA for 48 hrs and testing the medium for collagen and integrin secretion using appropriate antibodies using commercially available ELISA kits. The ELISA measures the secretion of collagen-1 and three different types of integrins, integrin alpha-2, -3 and -5. […] The data, presented in the right column, are expressed as a % stimulation of collagen secretion as compared to the control. […] Stimulation of collagen synthesis would provide more integrity to the dermis and would benefit in reducing wrinkles and will provide anti-aging benefits.
(§2) SHA can also stimulate integrin expression of fibroblasts and keratinocytes. […] In each table, that left column lists the various concentrations of SHA used in the tests, while the three right columns present integrin expression data, for different varieties of integrin, expressed as a % stimulation with respect to the control (0 mM SHA). […] Integrin is a vital component of the cell extracellular matrix that helps in cell adhesion and attachment. The increased amount of integrin helps cells to attach and grow, making skin firmer and more cellular. […]
(In general: In an ELISA, binding on a coated surface is turned into a signal by an enzyme label.)

In the next experiment the target is mushroom tyrosinase. The experiment is described as follows: Inhibition of mushroom tyrosinase (tyrosine to DOPAchrome, OD475). The class given is biochemical. On the procedure:
The skin lightening effect of SHA was determined by measuring the inhibition of tyrosinase since tyrosinase is the enzyme that catalyzes the rate limiting steps in melanin synthesis. Inhibition of mushroom tyrosinase was assayed by measuring conversion of tyrosine to DOPAchrome (OD475) in the presence of varying concentrations of test sample. […] Thirty nanomolar SHA inhibited over 30% of the activity. The IC50 is 60 nM.

The target of experiment [2] is MMP-9 (also known as gelatinase) (Homo sapiens, UniProt P14780). Description: MMP inhibition, fluorogenic peptide assay. Particulars: for MMP-9 inhibitory activity (in words): fluorogenic peptide assay.
Sequence of MMP-9 (also known as gelatinase) (P14780 94-707, species assumed): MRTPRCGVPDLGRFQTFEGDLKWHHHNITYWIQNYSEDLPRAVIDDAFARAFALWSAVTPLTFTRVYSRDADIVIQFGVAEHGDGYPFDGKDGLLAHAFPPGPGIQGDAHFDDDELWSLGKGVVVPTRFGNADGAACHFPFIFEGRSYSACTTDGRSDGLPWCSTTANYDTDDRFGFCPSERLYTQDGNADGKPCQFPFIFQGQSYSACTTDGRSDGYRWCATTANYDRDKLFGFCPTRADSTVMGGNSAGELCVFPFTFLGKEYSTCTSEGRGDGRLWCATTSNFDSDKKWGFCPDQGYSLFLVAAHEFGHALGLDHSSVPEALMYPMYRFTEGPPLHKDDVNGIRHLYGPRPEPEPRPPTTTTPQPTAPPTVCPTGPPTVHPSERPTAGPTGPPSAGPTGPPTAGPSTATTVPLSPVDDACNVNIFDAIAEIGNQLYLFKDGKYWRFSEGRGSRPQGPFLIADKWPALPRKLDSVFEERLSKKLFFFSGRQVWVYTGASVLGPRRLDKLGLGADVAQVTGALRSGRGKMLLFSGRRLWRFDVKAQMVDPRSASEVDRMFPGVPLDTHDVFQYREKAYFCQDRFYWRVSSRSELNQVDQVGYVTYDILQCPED
Experimental: In this system, the substrate is a fluorogenic peptide which, when cleaved by the MMP, undergoes an increase in fluorescence. The reaction is followed by monitoring the increase in the fluorescence of the reaction mixture for 2 hours. The rate of fluorescence increase is a measure of the reaction rate. The assay is performed in microtiter plates using triplicate wells per condition. The test sample contains specific MMP and the putative MMP inhibitor at several concentrations and the mean rate of the reaction at each of these conditions is compared to the reaction rate in the absence of inhibitor. The concentration of the test sample that inhibits the reaction rate (i.e., MMP inhibition) by 50% is defined as the “50% Inhibitory Concentration” or IC50.
Experiment [3] concerns fibroblasts. Description: Integrin expression of fibroblasts (ELISA). The following applies: 48 hrs. The format is cell-based. How it is done:
as §1, §2

In experiment [4] the test system is fibroblasts. Description: Fibroblast collagen-1 secretion (ELISA). Particulars: 0.1 mM SHA, 48 hrs. The class given is cell-based. On the procedure:
as §1

The test system of experiment [5] is normal human keratinocytes. The experiment is described as follows: UVB-induced PGE2 production by keratinocytes (ELISA, normalized to MTT viability). The format is cell-based. Particulars: UVB 30 mJ/cm2; SHA at as low as 5 uM. On the procedure: The anti-inflammatory effect of SHA was measured by pretreating normal human keratinocytes with different concentrations of SHA for 24 hrs. The cells were UVB irradiated with a single sub-lethal dose of 30 mJ/cm2 using a Phillips TL20W12 tube. Cells were further incubated for 24 hrs with SHA and prostaglandin E2 (PGE2) levels in the supernatant media samples were analyzed by ELISA. 20 uM indomethacin was included as a positive control as an anti-inflammatory agent. The cell viability was also tested at the end of the 24 hr incubation period using the MTT metabolism method. […] The data was expressed as PGE2 production normalized to cell viability. PGE2, or prostaglandin E2, is an inflammatory mediator produced during inflammatory reactions in the skin. Any agents that inhibit the production of PGE2 will therefore have a beneficial effect of preventing inflammation (in other words, an anti-inflammatory effect). The top three bars display the effect of SHA at various concentrations on the UVB irradiated cells, the 4th bar the effect of indomethscin, the 5th bar the effect of UVB radiation on untreated cells, while the bottom bar is a control (untreated cells, not UVB irradiated).

A short description of experiment [6]: Singlet oxygen scavenging test (Rose Bengal / iodide). Particulars: % inhibition of control; compared with Coenzyme Q10 and green tea polyphenols. On the procedure: Singlet forms of molecular oxygen are excited electronic configurations that are more reactive than the spin-restricted ground state. These forms can be generated in tissues by a variety of mechanisms. Particularly relevant to the skin is light-induced production of singlet oxygen. The singlet oxygen scavenging test is performed by irradiation of a reaction mixture that contains a photosensitizer dye (Rose Bengal) and iodide ions. The excited dye transfers its energy to ground state oxygen to generate singlet oxygen which in turn oxidizes iodide to I3^−. Production of I3^− is followed spectrophotometrically at 355 nm. If a test sample is a singlet oxygen quencher, it will decrease the rate of I3^− production.

Experiment [7] concerns MMP 13. The following applies: primary human chondrocytes; cited from earlier work.
In experiment [8] the test system is AP-1 transcription factor. The following applies: keratinocyte cell line HaCaT; very low levels; cited from earlier work.
Experiment [9] in a line: UV-induced lipid peroxidation of lecithin liposomes (malonaldehyde). The following applies: relative to EGCG taken as 100%. On the procedure:
The ability of NDGA to prevent UV-induced lipid peroxidation was measured in comparison to other antioxidant industry standards such as vitamin E, vitamin C and green tea polyphenols. The assay was performed by irradiating a suspension of lecithin liposomes with UV light for 4 hours, in the absence or in the presence of the different compounds. Malonaldehyde levels (a breakdown product of oxidized lipids) were measured in aliquots of the reaction mixture at different times. The rate of lipid oxidation was calculated from the increase in malonaldehyde content. Relative potency was calculated by taking epigallocatechin gallate (EGCG) as 100%. The antioxidant used in the comparisons are listed in the left column. The middle column lists the effective concentration at which the compound is 50% effective (EC 50) for inhibition of lipid peroxidation, while the right column lists the relative potency of the samples, as compared to polyphenol of tea, which is taken as 100.

For experiment [10], the system named is MMP 13. The following applies: human chondrosarcoma cell line SW1353; cited from earlier work.
Experiment [11] has as its system normal human keratinocytes. The experiment is described as follows: UVB-induced TNF-α production by keratinocytes (ELISA, normalized to MTT viability). Particulars: UVB 35 mJ/cm2, 24 hrs; low concentrations of NDGA.
A short description of experiment [12]: Hydroxyl radical scavenging (Fenton reaction, terephthalic acid). Particulars: compared with green tea polyphenols, glutathione, vitamin E. How it is done:
Hydroxyl radical scavenging of NDGA was measured by generation of .OH via the Fenton reaction with terephthalic acid as oxidizable substrate. Hydroxylation of terephthalic acid results in production of a fluorescent product. The rate of the reaction is determined by measuring the time course of fluorescence increase. If a test sample is a hydroxyl radical scavenger, it will decrease the reaction rate.
FIG. 6 is a table displaying hydroxyl radical scavenging activity of NDGA in comparison with green tea polyphenols (GTP) and Vitamin E, indicated in the left column.

Each structure is given as a SMILES string. “And” between values parts separate entries of the source, which are not always exact repeats. Identical values can stand only once. “Also recorded” adds a separate entry of the source. Like-named read-outs stand apart in the source and are kept apart here.

The term IC50 denotes the point on the concentration scale where inhibition reaches its midpoint. As for `O=C(NO)c1ccccc1O` [SHA, Salicylhydroxamate], the “cornified envelope formation (terminal differentiation)” value in [1] is “induces terminal differentiation of keratinocytes, increases the formation of CE”. The “integrin expression (alpha-2, -3, -5) vs control” value in the experiment on keratinocytes is “increasing the integrin expression of keratinocytes”; with fibroblasts [3], “increasing the integrin expression of keratinocytes and fibroblasts”. The compound also gave a 50% inhibitory concentration (IC50) against mushroom tyrosinase of 0.06 µM. Further, in the experiment on mushroom tyrosinase (Thirty nanomolar SHA), the “inhibition of tyrosinase activity” value was “over 30%”. Besides, in experiment [2], the “MMP-9 inhibitory activity (in words)” value is “excellent and potent inhibitors of matrix metalloproteases”. Moreover, the “stimulation of collagen secretion compared to control” value in the experiment on fibroblasts [4] is “significantly stimulated the collagen synthesis of fibroblasts”. For the same compound, the “PGE2 production normalized to cell viability (anti-inflammatory effect)” value in [5] is reported as “potent anti-inflammatory effects”.
Regarding `NC(Cc1c[nH]c2ccccc12)C(=O)NO` (stereo not drawn) [tryptophan hydroxamate], the “MMP-9 inhibitory activity (in words)” value in [2] is “excellent and potent inhibitors of matrix metalloproteases”.
Regarding `CC(Cc1ccc(O)c(O)c1)C(C)Cc1ccc(O)c(O)c1` (stereo not drawn) [NDGA, nordihydroguaiaretic acid], in experiment [6], the “singlet oxygen scavenging activity” value was “very powerful singlet oxygen scavenger, equivalent to green tea polyphenols and better than coenzyme Q10”. Also, the “inhibition of TNF-α induced MMP 13 mRNA and protein induction” value was “inhibits TNF-α induced MMP 13 mRNA and protein induction” with MMP 13 [7]; “inhibits TNF-α induced MMP 13 mRNA and protein induction” with MMP 13 [10]. For the same compound, the 50% inhibitory concentration (IC50) in experiment [2] (IC50 MMP-9 inhibition, fluorogenic peptide, 2 hours) is ~232 µM and ~100 µM. In addition, the “MMP-9 inhibitory activity (in words)” value in [2] is listed as “very high MMP-9 inhibitory activity”. The “inhibition of AP-1 activation” value in [8] is given as “at very low levels inhibits AP-1 activation”. In [9], the “relative potency, inhibition of lipid peroxidation” value is “twice as potent as the next most effective antioxidant (EGCG); also recorded: two orders of magnitude more potent than the vitamin E varieties”. The “TNF alpha production normalized to cell viability” value in experiment [11] is listed as “effectively blocked UVB-induced inflammation in keratinocytes; also recorded: much more effective than dexamethasone or green tea polyphenols”. Moreover, the “hydroxyl radical scavenging activity” value in experiment [12] was “slightly more effective than green tea polyphenols and far more potent than glutathione or vitamin E”.
